Like-named read-outs stand apart in the source and are kept apart here.
Columns and labels:
[1] = biological target: T1, human serotonin transporter (SERT) (Homo sapiens, UniProt P31645); test: biochemical; type: binding
T1 construct: purchased PerkinElmer RBHSTM400UA

5-HT1D (r) = biological target: T2, 5-HT1D (r) (Rattus norvegicus, UniProt P28565); test: Competition assay to measure binding affinity at 5-HT1D receptor; details: test ligand 10 μM; [3H]serotonin 1 nM
T2 construct: host or cells: CHO cells

5-HT2A receptor = 5-HT2A receptor (Homo sapiens, UniProt P28223); test: 5-HT2A receptor radioligand competition assay (SPA)
D2 (h) = biological target: T3, D2 (h) (Homo sapiens, UniProt P14416); test: Competition assay to measure binding affinity at D2L receptor; details: test ligand 10 μM; [3H]methylspiperone 0.3 nM
T3 construct: host or cells: HEK-293 cells

alpha2A (h) = biological target: T4, alpha2A (h) (Homo sapiens, UniProt P08913); test: Competition assay to measure binding affinity at alpha2A receptor; details: test ligand 10 μM; [3H]RX 821002 1 nM; read-out: α-2A, percent of control-specific binding
T4 construct: host or cells: CHO cells
T4 sequence (P08913 1-465): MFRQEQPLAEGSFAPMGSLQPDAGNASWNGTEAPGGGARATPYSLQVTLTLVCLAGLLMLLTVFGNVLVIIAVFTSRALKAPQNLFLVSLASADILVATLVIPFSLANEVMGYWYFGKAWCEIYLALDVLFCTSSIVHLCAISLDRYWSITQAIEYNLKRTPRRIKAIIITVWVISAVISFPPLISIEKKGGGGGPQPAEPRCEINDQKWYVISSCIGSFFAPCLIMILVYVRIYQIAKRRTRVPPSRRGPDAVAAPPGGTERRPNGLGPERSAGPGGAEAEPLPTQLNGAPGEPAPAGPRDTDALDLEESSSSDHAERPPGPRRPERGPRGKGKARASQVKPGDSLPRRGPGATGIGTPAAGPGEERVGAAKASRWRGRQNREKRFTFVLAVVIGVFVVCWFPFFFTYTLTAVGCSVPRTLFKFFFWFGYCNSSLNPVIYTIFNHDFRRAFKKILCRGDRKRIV

5-HT2C (h) = biological target: T5, 5-HT2C (h) (Homo sapiens, UniProt P28335); test: Competition assay to measure binding affinity at 5-HT2C receptor; details: test ligand 10 μM; [125I](±)DOI 0.1 nM
T5 construct: host or cells: HEK-293 cells
T5 sequence (P28335 33-458): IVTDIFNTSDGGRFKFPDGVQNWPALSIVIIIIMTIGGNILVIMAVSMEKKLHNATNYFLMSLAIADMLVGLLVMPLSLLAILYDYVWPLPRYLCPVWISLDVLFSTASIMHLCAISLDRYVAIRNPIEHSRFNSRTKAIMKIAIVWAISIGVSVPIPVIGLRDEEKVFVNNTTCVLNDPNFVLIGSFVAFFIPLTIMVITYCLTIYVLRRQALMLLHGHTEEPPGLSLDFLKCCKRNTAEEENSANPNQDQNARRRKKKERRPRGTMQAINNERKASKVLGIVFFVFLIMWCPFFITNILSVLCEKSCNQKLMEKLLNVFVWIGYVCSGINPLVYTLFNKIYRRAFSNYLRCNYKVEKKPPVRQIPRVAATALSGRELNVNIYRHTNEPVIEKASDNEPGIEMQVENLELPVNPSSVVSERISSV

DAT (h) = biological target: T6, DAT (h) (Homo sapiens, UniProt Q01959); test: Competition assay to measure binding affinity at dopamine transporter (DAT); details: test ligand 10 μM; [3H]BTCP 4 nM
T6 construct: host or cells: CHO cells

MT1 (ML1A) (h) = biological target: T7, MT1 (ML1A) (h) (Homo sapiens, UniProt P48039); test: Competition assay to measure binding affinity at MT1 receptor; details: test ligand 10 μM; [125I]2-iodomelatonin 0.01 nM
T7 construct: host or cells: CHO cells

5-HT1B (h) = biological target: T8, 5-HT1B (h) (Homo sapiens, UniProt P28222); test: Competition assay to measure binding affinity at 5-HT1B receptor; details: test ligand 10 μM; [3H]GR125743 1 nM
T8 construct: host or cells: Chem-1 (RBL) cells

5-HT1A receptor = biological target: T9, 5-HT1A receptor (Homo sapiens, UniProt P08908); test: 5-HT1A receptor radioligand competition assay (SPA); type: binding
T9 construct: purchased Perkin Elmer 6110501400UA
T9 sequence (P08908 1-422): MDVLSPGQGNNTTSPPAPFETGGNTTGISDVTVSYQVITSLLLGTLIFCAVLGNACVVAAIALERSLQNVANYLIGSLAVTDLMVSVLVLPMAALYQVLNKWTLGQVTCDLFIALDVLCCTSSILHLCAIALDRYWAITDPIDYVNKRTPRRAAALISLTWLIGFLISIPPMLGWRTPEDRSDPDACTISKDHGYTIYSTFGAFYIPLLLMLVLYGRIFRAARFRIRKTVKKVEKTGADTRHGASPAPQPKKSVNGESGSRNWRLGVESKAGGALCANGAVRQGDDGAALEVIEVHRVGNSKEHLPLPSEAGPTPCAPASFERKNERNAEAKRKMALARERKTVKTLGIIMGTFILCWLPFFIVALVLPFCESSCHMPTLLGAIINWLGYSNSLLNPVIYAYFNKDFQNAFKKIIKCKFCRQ

5-HT7 (h) = biological target: T10, 5-HT7 (h) (Homo sapiens, UniProt P34969); test: Competition assay to measure binding affinity at 5-HT7 receptor; details: test ligand 10 μM; [3H]LSD 4 nM
T10 construct: host or cells: HEK-293 cells

D3 (h) = biological target: T11, D3 (h) (Homo sapiens, UniProt P35462); test: Competition assay to measure binding affinity at D3 receptor; details: test ligand 10 μM; [3H]methylspiperone […]
T11 construct: host or cells: CHO cells

5-HT2B (h) = biological target: T12, 5-HT2B (h) (Homo sapiens, UniProt P41595); test: Competition assay to measure binding affinity at 5-HT2B receptor; details: test ligand 10 μM; [3H]mesulergine 2 nM
T12 construct: host or cells: CHO cells

NET (h) = biological target: T13, NET (h) (Homo sapiens, UniProt P23975); test: Competition assay to measure binding affinity at norepinephrine transporter (NET); details: test ligand 10 μM; [3H]nisoxetine 1 nM
T13 construct: host or cells: CHO cells

[2] = competition with 0.5 nM 8-hydroxy-DPAT [3H], test compound 3 nM to 1 mM, read-out: 5-HT1A, Ki

T6 sequence (Q01959 whole entry): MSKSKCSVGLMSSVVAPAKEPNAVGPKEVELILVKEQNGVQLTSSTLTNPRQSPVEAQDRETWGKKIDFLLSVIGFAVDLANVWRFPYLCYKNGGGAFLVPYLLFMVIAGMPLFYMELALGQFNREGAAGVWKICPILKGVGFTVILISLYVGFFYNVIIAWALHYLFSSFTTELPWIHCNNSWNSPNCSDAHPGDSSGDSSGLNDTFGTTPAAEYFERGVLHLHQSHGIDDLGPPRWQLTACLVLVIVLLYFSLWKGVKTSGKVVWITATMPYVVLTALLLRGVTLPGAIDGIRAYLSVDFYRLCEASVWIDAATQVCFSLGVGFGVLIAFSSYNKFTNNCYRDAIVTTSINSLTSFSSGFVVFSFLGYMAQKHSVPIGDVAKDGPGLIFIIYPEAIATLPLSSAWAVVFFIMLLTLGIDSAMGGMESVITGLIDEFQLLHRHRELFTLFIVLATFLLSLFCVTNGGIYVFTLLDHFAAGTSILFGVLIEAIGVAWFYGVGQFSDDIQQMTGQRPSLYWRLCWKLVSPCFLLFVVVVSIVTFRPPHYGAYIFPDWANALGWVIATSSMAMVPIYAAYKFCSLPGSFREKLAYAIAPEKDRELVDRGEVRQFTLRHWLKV
T11 sequence (P35462 whole entry): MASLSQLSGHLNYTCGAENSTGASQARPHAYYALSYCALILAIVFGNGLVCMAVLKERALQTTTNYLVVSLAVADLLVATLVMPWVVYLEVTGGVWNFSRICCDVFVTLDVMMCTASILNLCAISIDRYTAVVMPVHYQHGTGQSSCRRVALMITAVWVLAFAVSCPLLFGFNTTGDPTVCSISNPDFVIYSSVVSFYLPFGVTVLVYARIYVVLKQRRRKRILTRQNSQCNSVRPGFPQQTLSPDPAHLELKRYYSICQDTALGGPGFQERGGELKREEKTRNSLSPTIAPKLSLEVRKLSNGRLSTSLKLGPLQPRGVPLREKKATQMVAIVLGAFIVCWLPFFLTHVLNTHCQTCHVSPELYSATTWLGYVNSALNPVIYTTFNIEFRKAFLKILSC
T1 sequence (P31645 whole entry): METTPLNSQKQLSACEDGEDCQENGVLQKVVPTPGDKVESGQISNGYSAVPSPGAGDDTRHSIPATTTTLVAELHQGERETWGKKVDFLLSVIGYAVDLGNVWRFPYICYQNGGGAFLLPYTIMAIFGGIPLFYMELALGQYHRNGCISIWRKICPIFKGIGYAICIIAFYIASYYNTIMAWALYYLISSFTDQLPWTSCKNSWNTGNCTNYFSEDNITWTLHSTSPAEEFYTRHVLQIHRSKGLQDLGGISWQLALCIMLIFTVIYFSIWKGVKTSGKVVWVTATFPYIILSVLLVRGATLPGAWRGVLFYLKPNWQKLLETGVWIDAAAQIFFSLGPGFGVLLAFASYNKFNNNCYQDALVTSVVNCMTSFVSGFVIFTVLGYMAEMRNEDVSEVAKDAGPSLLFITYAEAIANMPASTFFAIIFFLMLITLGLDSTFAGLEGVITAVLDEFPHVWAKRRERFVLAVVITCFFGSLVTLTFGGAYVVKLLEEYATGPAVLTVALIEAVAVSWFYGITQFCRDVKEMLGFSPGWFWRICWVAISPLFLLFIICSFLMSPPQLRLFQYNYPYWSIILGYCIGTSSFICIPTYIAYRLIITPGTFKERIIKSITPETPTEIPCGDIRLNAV
Sequence of 5-HT2A receptor (P28223 whole entry): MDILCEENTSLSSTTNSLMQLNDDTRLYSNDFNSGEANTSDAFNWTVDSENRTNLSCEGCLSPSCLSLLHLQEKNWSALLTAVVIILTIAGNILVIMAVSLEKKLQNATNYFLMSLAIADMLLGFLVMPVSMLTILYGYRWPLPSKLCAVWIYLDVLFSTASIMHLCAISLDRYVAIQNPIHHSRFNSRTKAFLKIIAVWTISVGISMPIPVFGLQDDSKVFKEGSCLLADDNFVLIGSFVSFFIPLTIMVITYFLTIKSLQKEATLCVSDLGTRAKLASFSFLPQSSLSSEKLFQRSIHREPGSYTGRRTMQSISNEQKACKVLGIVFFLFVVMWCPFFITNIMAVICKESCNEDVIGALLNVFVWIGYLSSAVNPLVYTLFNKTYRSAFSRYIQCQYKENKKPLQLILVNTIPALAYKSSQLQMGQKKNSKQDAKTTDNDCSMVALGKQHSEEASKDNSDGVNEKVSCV
T12 sequence (P41595 whole entry): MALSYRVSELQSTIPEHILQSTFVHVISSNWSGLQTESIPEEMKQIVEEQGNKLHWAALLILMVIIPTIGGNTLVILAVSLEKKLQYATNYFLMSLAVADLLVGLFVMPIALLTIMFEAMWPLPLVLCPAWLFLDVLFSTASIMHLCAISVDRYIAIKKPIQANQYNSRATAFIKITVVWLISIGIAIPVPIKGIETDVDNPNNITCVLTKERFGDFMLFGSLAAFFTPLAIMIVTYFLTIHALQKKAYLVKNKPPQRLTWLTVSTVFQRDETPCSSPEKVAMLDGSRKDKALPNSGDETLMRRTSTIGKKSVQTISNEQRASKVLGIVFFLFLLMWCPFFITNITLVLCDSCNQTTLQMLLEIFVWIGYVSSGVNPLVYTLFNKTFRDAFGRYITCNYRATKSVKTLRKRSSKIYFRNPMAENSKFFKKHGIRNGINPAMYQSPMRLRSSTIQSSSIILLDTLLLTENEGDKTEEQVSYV
T10 sequence (P34969 whole entry): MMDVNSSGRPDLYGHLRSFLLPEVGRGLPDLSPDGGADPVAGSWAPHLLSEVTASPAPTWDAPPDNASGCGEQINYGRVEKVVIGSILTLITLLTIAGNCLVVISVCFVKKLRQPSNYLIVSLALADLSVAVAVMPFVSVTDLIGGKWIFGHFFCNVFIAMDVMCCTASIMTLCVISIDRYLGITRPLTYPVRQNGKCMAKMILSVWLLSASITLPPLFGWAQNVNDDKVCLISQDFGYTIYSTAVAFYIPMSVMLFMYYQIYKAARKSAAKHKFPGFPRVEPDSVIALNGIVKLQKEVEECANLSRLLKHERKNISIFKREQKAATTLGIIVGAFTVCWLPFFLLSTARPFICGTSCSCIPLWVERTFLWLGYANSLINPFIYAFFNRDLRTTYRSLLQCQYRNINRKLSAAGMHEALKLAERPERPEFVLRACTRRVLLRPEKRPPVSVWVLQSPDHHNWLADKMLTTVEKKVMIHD
T13 sequence (P23975 whole entry): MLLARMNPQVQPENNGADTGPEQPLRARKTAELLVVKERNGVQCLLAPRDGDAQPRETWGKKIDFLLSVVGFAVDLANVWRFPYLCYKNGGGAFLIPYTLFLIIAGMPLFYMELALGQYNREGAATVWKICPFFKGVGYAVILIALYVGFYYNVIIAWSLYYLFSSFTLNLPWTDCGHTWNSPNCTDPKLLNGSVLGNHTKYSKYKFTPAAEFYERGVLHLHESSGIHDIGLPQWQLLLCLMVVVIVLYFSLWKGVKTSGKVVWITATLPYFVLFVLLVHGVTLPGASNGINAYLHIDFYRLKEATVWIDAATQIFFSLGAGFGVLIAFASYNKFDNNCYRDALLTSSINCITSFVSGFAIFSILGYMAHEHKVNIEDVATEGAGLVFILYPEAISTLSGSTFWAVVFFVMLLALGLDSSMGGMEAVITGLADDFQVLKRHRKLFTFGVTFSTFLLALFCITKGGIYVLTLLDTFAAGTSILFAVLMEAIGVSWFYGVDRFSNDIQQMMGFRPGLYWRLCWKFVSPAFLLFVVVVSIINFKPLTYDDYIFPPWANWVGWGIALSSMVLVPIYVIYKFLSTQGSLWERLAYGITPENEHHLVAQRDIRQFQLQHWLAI
T3 sequence (P14416 whole entry): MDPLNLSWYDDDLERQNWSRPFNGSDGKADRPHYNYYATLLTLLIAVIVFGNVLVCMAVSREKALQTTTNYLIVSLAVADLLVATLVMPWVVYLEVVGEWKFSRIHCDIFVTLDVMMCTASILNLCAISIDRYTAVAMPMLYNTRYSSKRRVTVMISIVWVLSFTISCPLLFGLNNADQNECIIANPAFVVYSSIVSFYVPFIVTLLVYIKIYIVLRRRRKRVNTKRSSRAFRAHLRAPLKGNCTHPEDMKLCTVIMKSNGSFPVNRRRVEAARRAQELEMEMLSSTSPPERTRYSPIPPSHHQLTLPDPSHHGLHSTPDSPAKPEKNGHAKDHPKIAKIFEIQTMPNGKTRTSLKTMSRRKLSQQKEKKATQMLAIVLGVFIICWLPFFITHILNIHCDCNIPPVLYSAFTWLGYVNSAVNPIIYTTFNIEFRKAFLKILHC
T2 sequence (P28565 whole entry): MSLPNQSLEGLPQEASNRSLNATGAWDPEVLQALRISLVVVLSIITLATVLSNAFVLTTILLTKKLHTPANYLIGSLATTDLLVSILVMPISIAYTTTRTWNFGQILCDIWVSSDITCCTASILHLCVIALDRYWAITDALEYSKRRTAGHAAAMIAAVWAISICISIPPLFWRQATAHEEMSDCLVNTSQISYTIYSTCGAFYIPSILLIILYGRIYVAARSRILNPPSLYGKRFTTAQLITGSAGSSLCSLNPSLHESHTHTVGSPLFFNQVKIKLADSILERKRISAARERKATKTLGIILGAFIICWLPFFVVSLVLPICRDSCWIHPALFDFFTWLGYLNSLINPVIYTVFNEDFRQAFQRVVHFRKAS
T8 sequence (P28222 whole entry): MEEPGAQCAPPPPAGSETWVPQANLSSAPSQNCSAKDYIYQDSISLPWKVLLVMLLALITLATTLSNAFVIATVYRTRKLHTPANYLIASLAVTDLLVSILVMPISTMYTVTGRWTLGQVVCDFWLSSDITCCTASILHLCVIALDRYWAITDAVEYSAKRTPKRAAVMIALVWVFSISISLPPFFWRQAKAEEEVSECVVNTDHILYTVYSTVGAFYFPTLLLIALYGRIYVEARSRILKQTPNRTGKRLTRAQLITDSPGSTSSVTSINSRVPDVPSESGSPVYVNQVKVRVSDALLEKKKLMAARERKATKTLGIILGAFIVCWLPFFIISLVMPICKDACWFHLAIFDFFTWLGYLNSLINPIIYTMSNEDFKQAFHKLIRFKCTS

Compound | Ki [1] [µM] | HT1D, percent of control-specific binding (5-HT1D (r)) [%] | Ki (5-HT2A receptor) [µM] | D2, percent of control-specific binding (D2 (h)) [%] | inhibition at 10 µM (alpha2A (h)) [%] | HT2C, percent of control-specific binding (5-HT2C (h)) [%] | DAT, percent of control-specific binding (DAT (h)) [%] | MT1, percent of control-specific binding (MT1 (ML1A) (h)) [%] | HT1B, percent of control-specific binding (5-HT1B (h)) [%] | Ki (5-HT1A receptor) [µM] | HT7, percent of control-specific binding (5-HT7 (h)) [%] | D3, percent of control-specific binding (D3 (h)) [%] | HT2B, percent of control-specific binding (5-HT2B (h)) [%] | NET, percent of control-specific binding (NET (h)) [%] | Ki (5-HT1A receptor; [2]) [µM]
CC(Cc1ccc2c(c1)OCCO2)NCc1ccc2c(c1)OCO2 (stereo not shown) [A(XII)] | 2.39 | 24 | 26 | 26 | 66 | 31 | 92 | 6 | 0 | 1.2 | 51 | 58 | 86 | 69 | 
CC(Cc1ccc2c(c1)OCCO2)NCc1ccc2c(c1)OCCO2 (stereo not shown) [A(XIII)] | 2.91 | 38 | 102 | 28 | 77 | 34 | 90 | 12 | 11 | 1.5 | 52 | 54 | 85 | 50 | 
O=C(Cc1cc2c(cc1Br)OCO2)NCCO [A(XIX)] | > 1000 | 0 | 18.8 | 0 | 10 | 22 | 0 | 15 | 0 |  | 1 | 0 | 7 | 0 | 586
CC(C)(C)OC(=O)NC1CN(CCc2ccc3c(c2)OCO3)C1 [A(XV)] | 64.3 | 29 | 86 | 0 | 6 | 36 | 39 | 0 | 1 |  | 58 | 53 | 58 | 11 | 3.1
CC(Cc1ccc2c(c1)OCCO2)N1CC(NC(=O)OC(C)(C)C)C1 (stereo not shown) [A(XVI)] | 58.1 | 37 | 39 | 21 | 86 | 79 | 16 | 3 | 27 |  | 62 | 82 | 90 | 24 | 1.4
